Test results as given in patent US20120328605A1, “COMPOSITIONS AND USES” (priority 2010, published 2012).

Tests used:
APPSwe/PS1 mice = test: T-water maze; assay type: in vivo
Procedure: Five groups of APPSwe/PS1 mice received one a week for a period of 12 weeks the following treatment: • Gr1: APPSwe/PS1+NaCl 0.9% n(=20), i.p. injections • Gr4: APPSwe/PS1+CRX527 (20 μg/mouse, 130 μl, n=10), i.p. injections • Gr5: […] (50 μg/mouse, 130 μl, n=10), i.p. injections • Gr8 APPSwe/PS1+AS15 ( 1/10th of human dose, 50 μl, n=10), i.m. injections • Gr9: APPSwe/PS1+AS01B ( 1/10th of human dose, 50 μl, n=10), i.m. injections
Mice were tested during the “light on” phase of the day. Behavioral experimenter was blinded to the genetic and treatment status of animals. To assess hippocampal-dependent spatial learning and memory, mice were trained in the T-water maze task. In this paradigm, we evaluate the mouse's ability to remember the spatial location of submerged platform. The T-maze apparatus (length of stem, 64 cm; length of arms, 30 cm; width, 12 cm; height of walls, 16 cm) was made of clear fiberglass and filled with water (23±1° C.) at a height of 12 cm. A platform (11×11 cm) was placed at the end of the target arm and was submerged 1 cm below the surface. The acquisition phase allows to evaluate animals for left-right spatial learning. During the first two trials, platforms were placed on each arms of the maze to test the spontaneous turning preference of the mouse. After these two trials, the least chosen arm was reinforced by the escape platform. The mice were placed in the stem of the T-maze and choose to swim either left or right until they found the submerged platform and escape to it, to a maximum of 60 s. After reaching the platform, the mice remained on it for 20 s and then were immediately placed back in the maze. […] Repeated trials were presented on the same day up to a maximum of 48 trials. A rest period of at least 10-15 min intervened between each block of 10 trials. A mouse was considered to have learned the task when it made no errors in a block of five consecutive trials. […] The number of trials to reach the criterion (five of five correct choices made on consecutive trials) was measured as well as the latency to find the escape platform.

[1] = tested on: CD11b+ peripheral blood monocytes; test: Ex vivo uptake assay of Aβ1-42 by peripheral blood monocytes; assay type: cell-based, C57BL/6 mice; details: AS01B mouse full dose (5 ug per mouse) or CRX601 2 μg i.m.; FIG. 14
Procedure: Preparation of cells: Peripheral blood was drawn from C57BL/6 mice via cardiac puncture with lithium-heparin as anticoagulant, 24-hours after injection of the adjuvants used herein. Red blood cell lysis was performed twice on pooled blood with Ammonium Chloride-based Buffer (Sigma, Steinheim, Germany) and cells were counted with the EasyCount™ System (Immunicon). […]
FACS analysis: cells were harvested after incubation with fluorescent Aβ peptide with Trypsin/EDTA and cold PBS and washed three times. 500,000 cells were incubated in 96-well plate for 10 min. on ice in the presence of Rat anti-Mouse CD16/CD32 (clone 2.4G2-BD Fc Block™) and further stained for 30 min. with a combination of the following directly conjugated antibodies at their pre-determined optimal concentration: PE-Hamster anti-Mouse CD3 (clone 145-2C11), Rat anti-Mouse CD45R/B220 (clone RA3-6B2), Rat anti-Mouse Ly-6G (clone 1A8), Mouse anti-Mouse NK1.1 (clone PK136), APC-conjugated Rat anti-Mouse CD11b (clone M1/70), PE-Cy7-conjugated Hamster anti-Mouse CD11c (clone HL3), (all from BD PharMingen). […]
Samples were acquired on a flow cytometer (BD FACSCanto II) and data analyzed with the FACSDiva software (BD Biosciences). […]

CCCCCCCCCCC[C@H](CC(=O)N[C@H]1[C@H](OC[C@H](NC(=O)C[C@@H](CCCCCCCCCCC)OCCCCCCCCCC)C(=O)O)O[C@H](CO)[C@@H](OP(=O)(O)O)[C@@H]1OC(=O)C[C@@H](CCCCCCCCCCC)OCCCCCCCCCC)OCCCCCCCCCC [CRX601]
behaviour as assessed by T water maze testing (APPSwe/PS1 mice; Example 21: twelve weekly injections, CRX527, CRX601 20 μg i.p., 3D MPL 50 μg i.p., AS01B 1/10th human dose i.m., FIG. 24): significant improvements in behaviour
cognitive functions, T-water maze vs PBS-treated control group (APPSwe/PS1 mice; Example 22, i.m. 12× weekly: CRX601 2 μg, CRX601 2 ug in AS03, 3D MPL 5 ug, AS01B 1/10 human dose, unpaired t-tests, FIG. 27A): significant improvement of their cognitive functions
ex vivo uptake of Aβ42 by monocytes compared to PBS group [1]: higher amount of Aβ42
